Measured values published in patent US20200237766A1, “PKM2 ACTIVATORS IN COMBINATION WITH REACTIVE OXYGEN SPECIES FOR TREATMENT OF CANCER” (TOLERO PHARMACEUTICALS, INC., priority 2017, published 2020).
Read-outs that look alike come from different tables or passages of the source.

Target: PKM2 (Homo sapiens, UniProt P14618)
Assay: PKM2 activation biochemical assay (AC50 / max. response vs fructose 1,6-bisphosphate)
Conditions: for Max. Resp. (%): % maximum response in a biochemical assay as compared with Fructose 1,6-bisphosphate
[1] = biochemical assay, read-out: PKM2 AC50

Chain of PKM2 (P14618 whole entry): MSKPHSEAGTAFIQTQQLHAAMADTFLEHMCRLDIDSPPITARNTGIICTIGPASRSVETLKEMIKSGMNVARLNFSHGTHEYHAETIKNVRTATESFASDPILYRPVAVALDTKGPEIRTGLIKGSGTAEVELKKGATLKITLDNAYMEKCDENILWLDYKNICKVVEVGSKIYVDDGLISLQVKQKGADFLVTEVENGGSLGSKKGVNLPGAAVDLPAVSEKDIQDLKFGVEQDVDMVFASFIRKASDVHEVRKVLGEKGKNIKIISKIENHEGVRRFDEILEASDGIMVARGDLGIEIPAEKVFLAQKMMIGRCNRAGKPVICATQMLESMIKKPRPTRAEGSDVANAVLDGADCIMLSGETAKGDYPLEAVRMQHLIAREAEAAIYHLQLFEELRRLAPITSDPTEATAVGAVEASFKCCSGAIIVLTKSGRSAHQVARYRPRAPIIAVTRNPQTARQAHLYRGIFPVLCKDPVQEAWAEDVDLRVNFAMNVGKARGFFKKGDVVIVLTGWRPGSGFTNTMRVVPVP

SMILES	Max. Resp. (%)	AC50 [1] [nM]	AC50 [nM]
O=C(c1cc(C(F)(F)F)n[nH]1)N(CCC1CCSCC1)Cc1ccccc1Cl [Compound 73]	79	1340	–
O=C(c1cc(C(F)(F)F)n[nH]1)N(CCC1CC[S+]([O-])CC1)Cc1ccccc1Cl (stereo not shown) [Compound 74]	95	640	–
O=C(c1cc(C(F)(F)F)n[nH]1)N(CCC1CCS(=O)(=O)CC1)Cc1ccccc1Cl [Compound 75]	102	188	–
O=C(c1cc(C(F)(F)F)n[nH]1)N(CCC1CCS(=O)(=O)C1)Cc1ccc(O)cc1F (stereo not shown) [Compound 76]	93	54	–
Nc1ccccc1CN(CCC1CCS(=O)(=O)C1)C(=O)c1cc(C(F)(F)F)n[nH]1 (stereo not shown) [Compound 77]	43	–	34800
O=C(c1cc(C(F)(F)F)n[nH]1)N(CCC1CCS(=O)(=O)CC1)Cc1ccccc1Cl [Compound 78]	–	485	–
O=C(c1cc(C(F)(F)F)n[nH]1)N(CCC1CCSCC1)Cc1ccccc1F [Compound 79]	95	1190	–
O=C(c1cc(Cl)n[nH]1)N(CCC1CCSCC1)Cc1ccccc1F [Compound 80]	46	–	1300
O=C(c1cc(Cl)n[nH]1)N(CCC1CCS(=O)(=O)CC1)Cc1ccccc1F [Compound 81]	72	–	1370
O=C(c1cc(Br)n[nH]1)N(CCC1CCSCC1)Cc1ccccc1F [Compound 82]	74	1370	–
O=C(c1cc(Br)n[nH]1)N(CCC1CCS(=O)(=O)CC1)Cc1ccccc1F [Compound 83]	98	1100	–
O=C(c1cc(C(F)(F)F)n[nH]1)N(CCC1CCSCC1)Cc1c(F)cccc1F [Compound 84]	73	697	–
O=C(c1cc(C(F)(F)F)n[nH]1)N(CCC1CCS(=O)(=O)CC1)Cc1c(F)cccc1F [Compound 85]	100	64	–
O=C(c1cc(C(F)(F)F)n[nH]1)N(CCC1CCSCC1)Cc1ccc(O)cc1F [Compound 86]	98	93	–
O=C(c1cc(C(F)(F)F)n[nH]1)N(CCC1CCS(=O)(=O)CC1)Cc1ccc(O)cc1F [Compound 87]	100	64	–
O=C(c1cc(C(F)(F)F)n[nH]1)N(CCC1CCS(=O)(=O)C1)Cc1ccccn1 (stereo not shown) [Compound 88]	96	3600	–
O=C(c1cc(C(F)(F)F)n[nH]1)N(CCC1CCS(=O)(=O)C1)Cc1ccncc1 (stereo not shown) [Compound 89]	35	58000	–
O=C(c1cc(C(F)(F)F)n[nH]1)N(CCC1CCS(=O)(=O)C1)Cc1cccnc1 (stereo not shown) [Compound 90]	24	52000	–
O=C(c1cc(C(F)(F)F)n[nH]1)N(CCC1CCS(=O)(=O)C1)Cc1ncccc1Cl (stereo not shown) [Compound 92]	74	1290	–
O=C(c1cc(C(F)(F)F)n[nH]1)N(CCC1CCS(=O)(=O)C1)Cc1cncs1 (stereo not shown) [Compound 93]	26	–	49000
O=C(c1cc(C(F)(F)F)n[nH]1)N(CCC1CCS(=O)(=O)C1)Cc1cccc([N+](=O)[O-])c1Cl (stereo not shown) [Compound 94]	69	2380	–
O=C(c1cc(C(F)(F)F)n[nH]1)N(CCC1CCNCC1)Cc1ccccc1F [Compound 98]	56	–	2050
CS(=O)(=O)N1CCC(CCN(Cc2ccccc2F)C(=O)c2cc(C(F)(F)F)n[nH]2)CC1 [Compound 99]	100	110	–
CN1CCC(CN(Cc2ccccc2F)C(=O)c2cc(C(F)(F)F)n[nH]2)CC1 [Compound 100]	29	101000	–

SMILES	Max. Resp. (%)	AC50 [1] [nM]	AC50 [nM]
CCN1CCC(CCN(Cc2ccccc2Cl)C(=O)c2cc(C(F)(F)F)n[nH]2)CC1 [Compound 101]	96	1860	–
CN1CCC(CCN(Cc2ccccc2Cl)C(=O)c2cc(C(F)(F)F)n[nH]2)CC1 [Compound 102]	71	767	–
CN1CCN(CCN(Cc2ccccc2F)C(=O)c2cc(C(F)(F)F)n[nH]2)CC1 [Compound 103]	42	–	37000
CN1CCN(CCN(Cc2ccccc2Cl)C(=O)c2cc(C(F)(F)F)n[nH]2)CC1 [Compound 104]	63	17000	–
CCN1CCC(CCN(Cc2c(Cl)cccc2Cl)C(=O)c2cc(C(F)(F)F)n[nH]2)CC1 [Compound 105]	71	3270	–
CCN1CCN(CCN(Cc2ccccc2F)C(=O)c2cc(C(F)(F)F)n[nH]2)CC1 [Compound 106]	115	6300	–
O=C(c1cc(C(F)(F)F)n[nH]1)N(CCN1CCS(=O)(=O)CC1)Cc1ccccc1Cl [Compound 107]	85	873	–
O=C(c1cc(C(F)(F)F)n[nH]1)N(CCN1CCS(=O)(=O)CC1)Cc1ccccc1F [Compound 108]	92	–	7800
O=C(c1cc(C(F)(F)F)n[nH]1)N(CCN1CCS(=O)(=O)CC1)Cc1c(F)cccc1F [Compound 109]	94	4200	–
O=C(c1cc(C(F)(F)F)n[nH]1)N(CCN1CCS(=O)(=O)CC1)Cc1c(Cl)cccc1Cl [Compound 110]	84	1640	–
O=C(c1cc(C(F)(F)F)n[nH]1)N(CCN1CCS(=O)(=O)CC1)Cc1cccc(F)c1F [Compound 111]	64	13100	–
Nc1cccc(CN(CCN2CCS(=O)(=O)CC2)C(=O)c2cc(C(F)(F)F)n[nH]2)c1 [Compound 112]	91	1070	–
CC[C@](C)(N)C(=O)Oc1ccc(CN(CC2CCC2)C(=O)c2cc(Cl)n[nH]2)c(F)c1 [Compound 115]	104	98	–
O=C(c1cc(Cl)n[nH]1)N(Cc1ccncc1F)CC1CCC1 [Compound 116]	–	38000	–
CN(C)Cc1c[nH]c2cccc(CN(CC3CCC3)C(=O)c3cc(Cl)n[nH]3)c12 [Compound 118]	100	7000	–
O=C(c1cc(Cl)n[nH]1)N(Cc1cccc2[nH]cnc12)CC1CCC1 [Compound 119]	100	2930	–
O=C(c1cc(Br)n[nH]1)N(Cc1cccc2[nH]cnc12)CC1CCC1 [Compound 120]	100	–	–
CNCc1c[nH]c2cccc(CN(CC3CCC3)C(=O)c3cc(Br)n[nH]3)c12 [Compound 121]	–	–	23000
O=C(c1cc(C(F)(F)F)n[nH]1)N(Cc1cccc2[nH]cnc12)CC1CCC1 [Compound 123]	100	–	828
O=C(c1cc(C(F)(F)F)n[nH]1)N(Cc1ccc(O)cc1Cl)CC1CCC1 [Compound 124]	100	21	–
O=C(c1cc(Br)n[nH]1)N(Cc1ccc(O)cc1Cl)CC1CCC1 [Compound 125]	100	35	–
O=C(c1cc(C(F)(F)F)n[nH]1)N(Cc1ccccc1Cl)CC1CCC1 [Compound 127]	100	–	258
O=C(c1cc(C(F)(F)F)n[nH]1)N(Cc1ccncc1Cl)CC1CCC1 [Compound 128]	75	9300	–
O=C(c1cc(C2CC2)n[nH]1)N(CCC(F)(F)F)Cc1ccc(O)cc1F [Compound 129]	–	–	10500
